Key:
Assay type in all cases: in vivo
[1] = tested on: Beet Armyworm (Spodoptera exigua); experiment: Insecticidal test for beet armyworm, treated lepidopteran diet; parameters: key: A: 90–100; B: 80–89; C: 70–79; D: 60–69; E: 50–59; F: less than 50; G: Inactive; settings: on diet surface, second-instar larvae, 5 days
From the text: (§1) The compounds are useful for reducing populations of insects and mites and are useful in a method of inhibiting an insect or mite population which comprises applying to a locus of the insect or mite an effective insect- or mite-inactivating amount of a compound of formula (1). The “locus” of insects or mites is a term used herein to refer to the environment in which the insects or mites live or where their eggs are present, including the air surrounding them, the food they eat, or objects which they contact. For example, insects or mites which eat or contact edible or ornamental plants can be controlled by applying the active compound to plant parts such as the seed, seedling, or cutting which is planted, the leaves, stems, fruits, grain, or roots, or to the soil in which the roots are growing. It is contemplated that the compounds might also be useful to protect textiles, paper, stored grain, seeds, domesticated animals, buildings or human beings by applying an active compound to or near such objects. The term “inhibiting an insect or mite” refers to a decrease in the numbers of living insects or mites, or a decrease in the number of viable insect or mite eggs. The extent of reduction accomplished by a compound depends, of course, upon the application rate of the compound, the particular compound used, and the target insect or mite species. At least an inactivating amount should be used. The terms “insect-inactivating amount” and “mite-inactivating amount” are used to describe the amount, which is sufficient to cause a measurable reduction in the treated insect or mite population. Generally an amount in the range from about 1 to about 1000 ppm by weight active compound is used. For example, insects and mites which can be inhibited include, but are not limited to: • Lepidoptera—Heliothis spp., Helicoverpa spp., Spodoptera spp., Mythimna unipuncta, Agrotis ipsilon, Earias spp., Euxoa auxiliaris, Trichoplusia ni, Anticarsia gemmatalis, Rachiplusia nu, Plutella xylostella, Chilo spp., Scirpophaga incertulas, Sesamia inferens, Cnaphalocrocis medinalis, Ostrinia nubilalis, Cydia pomonella, Carposina niponensis, Adoxophyes orana, Archips argyrospilus, Pandemis heparana, Epinotia aporema, Eupoecilia ambiguella, Lobesia botrana, Polychrosis viteana, Pectinophora gossypiella, Pieris rapae, Phyllonorycter spp., Leucoptera malifoliella, Phyllocnisitis citrella • Coleoptera—Diabrotica spp., Leptinotarsa decemlineata, Oulema oryzae, Anthonomus grandis, Lissorhoptrus oryzophilus, Agriotes spp., Melanotus communis, Popillia japonica, Cyclocephala spp., Tribolium spp. • Homoptera—Aphis spp., Myzus persicae, Rhopalosiphum spp., Dysaphis plantaginea, Toxoptera spp., Macrosiphum euphorbiae, Aulacorthum solani, Sitobion avenae, Metopolophium dirhodum, Schizaphis graminum, Brachycolus noxius, Nephotettix spp., Nilaparvata lugens, Sogatella furcifera, Laodelphax striatellus, Bemisia tabaci, Trialeurodes vaporariorum, Aleurodes proletella, Aleurothrixus floccosus, Quadraspidiotus perniciosus, Unaspis yanonensis, Ceroplastes rubens, Aonidiella aurantii • Hemiptera—Lygus spp., Eurygaster maura, Nezara viridula, Piezodorus guildingi, Leptocorisa varicornis • Thysanoptera—Frankliniella occidentalis, Thrips spp., Scirtothrips dorsalis • Isoptera—Reticulitermes flavipes, Coptotermes formosanus • Orthoptera—Blattella germanica, Blatta orientalis, Gryllotalpa spp. • Diptera—Liriomyza spp., Musca domestica, Aedes spp., Culex spp., Anopheles spp. • Hymenoptera—Iridomyrmex humilis, Solenopsis spp., Monomorium pharaonis, Atta spp., Pogonomyrmex spp., Camponotus spp. • Siphonaptera—Ctenophalides spp., Pulex irritans • Acarina—Tetranychus spp., Panonychus spp., Eotetranychus carpini, Phyllocoptruta oleivora, Aculus pelekassi, Brevipalpus phoenicis, Boophilus spp., Dermacentor variabilis, Rhipicephalus sanguineus, Amblyomma americanum, Ixodes spp., Notoedres cati, Sarcoptes scabiei, Dermatophagoides spp. […]

[2] = tested on: Cabbage Looper (Trichoplusia ni); experiment: Insecticidal test for cabbage looper, treated cabbage leaf disc; settings: cabbage leaf-dip, 2nd instar larvae, 5 days
From the text: as §1

[3] = tested on: Cotton Aphid (Aphis gossypii); experiment: Insecticidal test for cotton aphid, spray on infested squash cotyledons; settings: 50 ppm spray, 3 days
Protocol: Insecticidal Test for Cotton Aphid (Aphis gossypii)
To prepare spray solutions, 1 mg of each test compound was dissolved into 1 mL of a 90:10 acetone:ethanol solvent. This 1 mL of chemical solution was added to 19 mL of water containing 0.05% Tween 20 surfactant to produce a 50 ppm spray solution.
Squash cotyledons were infested with cotton aphid (all life stages) 16–20 hours prior to application of spray solution. The solution was sprayed on both sides of each infested squash cotyledon (0.5 mL×2 each side) with a sweeping action until runoff. The plants were allowed to air dry and held for 3 days in a controlled room at 26° C. and 40% RH after which time the test was graded. Grading was by actual count using a dissecting microscope and comparison of test counts to the untreated check. Results are given in Tables 1–4 as percent control based on population reduction versus the untreated.

[4] = tested on: Sweetpotato Whitefly (Bemisia tabacia); experiment: Insecticidal test for sweetpotato whitefly, spray on cotton plants; parameters: key: A: 90–100; B: 80–89; C: 70–79; D: 60–69; E: 50–59; F: less than 50; G: Inactive; settings: 200 ppm spray, 13 days, large nymphs
Protocol: Insecticidal Test for Sweetpotato Whitefly (Bemisia tabacia)
Four mg of each test compound was dissolved by adding 4 mL of a 90:10 acetone:ethanol solvent mixture to the vial containing the sample compound. This solution was added to 16 mL of water containing 0.05% Tween 20 surfactant to produce 20 mL of an 200 ppm spray solution.
Five-week-old cotton plants reared in a greenhouse were stripped of all foliage except for the two uppermost true leaves that were greater than 5 cm in diameter. These plants were then placed into a laboratory colony of whiteflies for two days for oviposition by the colony females. All whiteflies were then removed from the test plants with pressurized air. The spray solution was then applied to the test plants with a hand-held syringe fitted with hollow cone nozzle. One mL spray solution was applied to each leaf top and bottom for a total of 4 mL per plant. Four replications of each test compound utilized a total of 16 mL spray solution. Plants were air dried and then placed in a holding chamber (28° C. and 60% RH) for 13 days. Compound efficacy was evaluated by counting, under an illuminated magnifying glass, the number of large nymphs (3rd–4th instar) per leaf.
Percent control based on reduction of large nymphs of a test compound compared to solution-only (no test compound) sprayed plants is reported in Tables 1–4.

[5] = tested on: Tobacco Budworm (Heliothis virescens); experiment: Insecticidal test for tobacco budworm, treated cotton cotyledon leaf disc; parameters: key: A: 90–100; B: 80–89; C: 70–79; D: 60–69; E: 50–59; F: less than 50; G: Inactive; settings: cotton cotyledon leaf-dip, 2nd instar larvae, 5 days
From the text: as §1

[6] = tested on: Two-spotted Spider Mite (Tetranychus urticae); experiment: Insecticidal test for two-spotted spider mite, ovicide method; parameters: key: A: 90–100; B: 80–89; C: 70–79; D: 60–69; E: 50–59; F: less than 50; G: Inactive; settings: cotton leaf discs, 6 days
Protocol: Insecticidal Test for Two-spotted Spider Mite (Tetranychus urticae)
Ten adult female two-spotted spider mites were placed on eight 2.2 cm leaf discs of cotton leaf, allowed to oviposit over 24 hours, and thereafter removed. […] Discs were placed on an agar substrate and held at 24° C. and 90% RH for 6 days.

Compound | BAW: activity at 400 ppm against beet armyworm (% control rating) [1] | CL: activity at 400 ppm against cabbage looper (% control rating) [2] | CA: activity at 50 ppm against cotton aphid (% control rating) [3] | WF: activity at 200 ppm against whitefly (% control rating) [4] | TBW: activity at 400 ppm against tobacco budworm (% control rating) [5] | SM: activity against two-spotted spider mite (% control rating) [6]
Cc1cc(-c2ccc(OC(F)(F)C(Cl)Cl)cc2)sc1-c1nc(-c2c(F)cccc2Cl)nn1C | A (90–100) | A (90–100) | A (90–100) | E (50–59) | A (90–100) | B (80–89)
Cc1cc(-c2ccc(OC(F)(F)C(F)C(F)(F)F)cc2)sc1-c1nc(-c2c(F)cccc2Cl)nn1C (stereo not drawn) | A (90–100) | A (90–100) | B (80–89) | F (less than 50) | A (90–100) | A (90–100)
Cn1nc(-c2c(F)cccc2Cl)nc1-c1sc(-c2ccc(OC(F)(F)C(F)Br)cc2)cc1Cl (stereo not drawn) | A (90–100) | A (90–100) | E (50–59) | G | A (90–100) | C (70–79)
Cn1nc(-c2c(F)cccc2Cl)nc1-c1cc(-c2ccc3c(c2)OCC3)sc1Cl | G | A (90–100) | C (70–79) | G | F (less than 50) | G
Cn1nc(-c2c(F)cccc2Cl)nc1-c1cc(-c2cccc(OC(F)(F)F)c2)sc1Cl | G | A (90–100) | A (90–100) | G | G | A (90–100)
Cn1nc(-c2c(F)cccc2Cl)nc1-c1csc(-c2ccc(Cl)cc2F)c1 | G | A (90–100) | B (80–89) | F (less than 50) | F (less than 50) | A (90–100)
Cn1nc(-c2c(F)cccc2Cl)nc1-c1cc(-c2ccc(C(F)(F)F)cc2F)sc1Cl | A (90–100) | A (90–100) | F (less than 50) | F (less than 50) | F (less than 50) | G
Cn1nc(-c2c(F)cccc2Cl)nc1-c1cc(-c2ccc(Cl)cc2F)sc1Cl | A (90–100) | A (90–100) | F (less than 50) | F (less than 50) | F (less than 50) | A (90–100)
Cc1sc(-c2cccc(OC(F)(F)F)c2)cc1-c1nc(-c2c(F)cccc2Cl)nn1C | G | A (90–100) | A (90–100) | F (less than 50) | G | A (90–100)
Cc1sc(-c2ccc(Cl)cc2F)cc1-c1nc(-c2c(F)cccc2Cl)nn1C | A (90–100) | A (90–100) | B (80–89) | F (less than 50) | G | A (90–100)
Cc1c(-c2nc(-c3c(F)cccc3Cl)nn2C)csc1-c1ccc(C(F)(F)F)cc1F | A (90–100) | A (90–100) | A (90–100) | A (90–100) | B (80–89) | F (less than 50)
Cc1sc(-c2ccc(C(F)(F)F)cc2F)cc1-c1nc(-c2c(F)cccc2Cl)nn1C | A (90–100) | A (90–100) | F (less than 50) | G | G | B (80–89)
Cn1nc(-c2c(F)cccc2Cl)nc1-c1csc(-c2ccc(OC(F)(F)F)cc2F)c1 | G | F (less than 50) | C (70–79) | G | G | F (less than 50)

— US7056940B2, “Insecticidal 3-(2,6-disubstituted phenyl)-5-[5-arylthien-2-yl]-1,2,4-triazoles” (Dow AgroSciences LLC, priority 2001, dated 2006)
